Test results as given in patent US10968186B2, “Ascochlorin derivative and use thereof as AMPK activator” (priority 2016, dated 2021).
≈ marks a conversion by molar mass, not a printed value. Read-outs that look alike come from different tables or passages of the source.

Key:
[1] = Solubility in pH4.0 and pH7.4 phosphate buffer solution; format: physicochemical; details: phosphate buffer (PBS), aqueous buffer, kinetic from dmso stock, 2 hr incubation, 25° C.
Protocol: 1) Preparation of Stock Solutions
Diclofenac was used as positive control in the assay.
2) Procedures for Solubility Determination
This study was performed in duplicate. […] The filtered samples were diluted with methanol.
3) Samples Analyzed by LC-MS/MS

[2] = Stability against human liver microsomes; format: in vitro ADME; details: 2 μM compound
Protocol: (§1) Determination of Stability Against Mouse and Human Mirosomes
(§2) Pooled human liver microsomes (Cat. 452161; Lot. 23418) were purchased from Corning and pooled male mouse liver microsomes (Cat. M1000; Lot. 1210302) were purchased from Xenotech. Microsomes were stored at −80° C. prior to use. 40 μL of ultra-pure H2O was used instead of NADPH solution in the negative control. The negative control was used to exclude the misleading factor that was resulted from instability of chemical itself. Samples with NADPH were prepared in duplicate. Negative controls were prepared in singlet.
(§3) The reaction was started with the addition of 4 μL of 200 μM compound solution to each master solution to get the final concentration of 2 μM. Verapamil was used as positive control in the assay. Aliquots of 50 μL were taken from the reaction solution at 0, 15, 30, 45 and 60 min. The reaction was stopped by addition of 4 volumes of cold acetonitrile with IS (200 nM imipramine, 200 nM labetalol and 2 μM ketoprofen). Samples were centrifuged at 3,220 g for 40 minutes. Aliquot of […] of the supernatant was mixed with 90 μL of ultra-pure H2O and then was used for LC-MS/MS analysis. Results are shown in Table 3 by indicating remaining % of the test compound after 60 minutes incubation with liver microsomes from human and mouse in the presence of NADPH.

[3] = Stability against mouse liver microsomes; format: in vitro ADME; details: mouse LM, 2 μM compound, 60 min, NADPH
Protocol: as §1, §2, §3

A549 = assay: Anti-proliferative activity, CellTiterGlo assay, A549; format: cell-based; details: Homo sapiens; A549, 96 hrs incubation; read-out: Antiproliferative activities IC50, A549
Protocol: (§4) The anti-proliferative activities of the compounds against 6 human cancer cell lines were determined by CellTiterGlo assay kit. All cells were obtained from ATCC and cultured as recommended by the vendor. Cells were assayed in exponential growth phase. Sample solution was prepared by 3-fold serial dilution from 30 mM stock for 10 doses in DMSO. Antiproliferative activities were measured by CellTiterGlo assay kit according to the protocol after cells were incubated for 96 hrs in a 37° C., 5% CO2 incubator.
(§5) On the 4th day of incubation, i) 15 μl reagent (CelltiterGlo assay kit) was added per well and plate was shaken (avoiding light) for 2 mins on a plate shaker, ii) the plate was kept (avoiding light) in room temperature for 30 min, and iii) the luminescence value was recorded by Multiplate reader.

HT29 = assay: Anti-proliferative activity, CellTiterGlo assay, HT29; format: cell-based; details: Homo sapiens, HT-29; HT29, 96 hrs incubation; read-out: Antiproliferative activities IC50, HT29
Protocol: as §4, §5

BxPC-3 = assay: Anti-proliferative activity, CellTiterGlo assay, BxPC-3; format: cell-based; details: Homo sapiens; BxPC-3, 96 hrs incubation; read-out: Antiproliferative activities IC50, BxPC-3
Protocol: as §4, §5

LNCaP = assay: Anti-proliferative activity, CellTiterGlo assay, LNCaP; format: cell-based; details: Homo sapiens, 96 hrs incubation, read-out: Antiproliferative activities IC50, LNCaP
Protocol: as §4, §5

MDA-MB-231 = assay: Anti-proliferative activity, CellTiterGlo assay, MDA-MB-231; format: cell-based; details: Homo sapiens; MDA-MB-231, 96 hrs incubation; read-out: Antiproliferative activities IC50, MDA-MB-231
Protocol: as §4, §5

U87-MG = assay: Anti-proliferative activity, CellTiterGlo assay, U87-MG; format: cell-based; details: Homo sapiens, U-87 MG, 96 hrs incubation, read-out: Antiproliferative activities IC50, U87-MG
Protocol: as §4, §5

[4] = tested on: HFD-STZ C57BL/6J mice model; assay: In vivo efficacy in HFD-STZ C57BL/6J mice model
Protocol: In Vivo Efficacy in HFD-STZ C57BL/6J Mice Model
Diet induced obesity model establishment:
C57BL/6J mice were fed with high fat diet (Research Diets, D12492) for 64 days, and streptozotocin (10 mg/kg) was given orally on day 22 and day 29. Compound treatment was done from day 36 to day 63.
Based on the animal's body weight and oral glucose tolerance test (OGTT) on week 5, mice were randomly assigned to respective groups using a computer-generated randomization procedure.
Blood glucose level was measured with the blood from tail vein every 2nd week by using Accu-Chek Aviva System.
Blood Chemistry Analysis:
Blood samples were obtained from collection on Day 49 and 65, the samples were immediately processed by centrifugation at 4° C., 4,000 g for 15 minutes, and then they were transferred into a new test tube. Lipid profile and full panel blood bio-chemistry parameters were measured by using TOSHIBA TBA-40FR automated biochemical analyzer.

[5] = pH 4.0 phosphate buffer solution, read-out: Solubility, pH 4.0 PBS
[6] = pH 7.4 phosphate buffer solution, read-out: Solubility, pH 7.4 PBS
[7] = OGTT assay, versus group treated with vehicle
[8] = once a day oral treatment for 28 days at 0.25 to 16 mg/kg

Row | SMILES | solubility at 2 h [1, 5] [µM] | solubility at 2 h [1, 6] [µM] | Liver microsome stability remaining % after 60 min incubation with NADPH, human LM [2] [%] | Liver microsome stability remaining % after 60 min incubation with NADPH, mouse LM [3] [%] | IC50 (A549) [µM] | IC50 (HT29) [µM] | IC50 (BxPC-3) [µM] | IC50 (LNCaP) [µM] | IC50 (MDA-MB-231) [µM] | IC50 (U87-MG) [µM] | melting point [°C] | OGTT: blood glucose level after 2 hours of glucose administration, lower than control group [4, 7] [%] | OGTT: glucose AUC lower than control group [4, 7] [%] | decrease of HbA1C level [4, 8] [%] | decrease of blood glucose level [4, 8] [%]
1 | CCNC1CC[C@@H](C)[C@](C)(/C=C/C(C)=C/Cc2c(O)c(/C=N/OC)c(C)c(Cl)c2OC)[C@H]1C (stereo partly drawn) [Compound 21, 4-chloro-2-[(2E,4E)-5-[(1R,2R,6R)-3-(ethylamino)-1,2,6-trimethylcyclohexyl]-3-methylpenta-2,4-dien-1-yl]-3-methoxy-6-[(1E)-(methoxyimino)methyl]-5-methylphenol] | 168 (≈ 80.2 µg/mL) | 0.003 (≈ 0.00143 µg/mL) | 100 | 80 | 5.3 | 5 | 1.7 | 3.8 | 4.3 | 3.1 | – | – | – | – | –
2 | CO/N=C/c1c(C)c(Cl)c(OC)c(C/C=C(C)/C=C/[C@@]2(C)[C@H](C)CC/C(=N\OCC(=O)O)[C@@H]2C)c1O [Compound 19, 2-([[(1E,2R,3R,4R)-3-[(1E,3E)-5-[3-chloro-6-hydroxy-2-methoxy-5-[(1E)-(methoxyimino)methyl]-4-methylphenyl]-3-methylpenta-1,3-dien-1-yl]-2,3,4-trimethylcyclohexylidene]amino]oxy)acetic Acid] | 148 (≈ 77.1 µg/mL) | 23.7 (≈ 12.3 µg/mL) | 94 | 89 | 22.3 | 22.5 | 17 | 14.6 | 47.4 | 20.4 | – | 30 | 25 | −31 | −68
3 | CO/N=C/c1c(C)c(Cl)c(OC)c(C/C=C(C)/C=C/[C@@]2(C)[C@H](C)CC/C(=N\OCCN3CCN(C)CC3)[C@@H]2C)c1O [Compound 17, 4-chloro-3-methoxy-6-[(1E)-(methoxyimino)methyl]-5-methyl-2-[(2E,4E)-3-methyl-5-[(1R,2R,3E,6R)-1,2,6-trimethyl-3-[[2-(4-methylpiperazin-1-yl)ethoxy]imino]cyclohexyl]penta-2,4-dien-1-yl]phenol] | 39 (≈ 23 µg/mL) | 0.04 (≈ 0.0236 µg/mL) | 76 | 55 | 6.8 | 5.2 | 1.7 | 4.1 | 5 | 4.5 | – | – | – | – | –
4 | CO/N=C/c1c(C)c(Cl)c(OC)c(C/C=C(C)/C=C/[C@@]2(C)[C@H](C)CC/C(=N\OCCN(C)C)[C@@H]2C)c1O [Compound 15, 4-chloro-2-[(2E,4E)-5-[(1R,2R,3E,6R)-3-[[2-(dimethylamino)ethoxy]imino]-1,2,6-trimethylcyclohexyl]-3-methylpenta-2,4-dien-1-yl]-3-methoxy-6-[(1E)-(methoxyimino)methyl]-5-methylphenol] | 54 (≈ 28.8 µg/mL) | 0.29 (≈ 0.155 µg/mL) | 88 | 79 | 6.7 | 7 | 1.7 | 4.2 | 4.8 | 4.4 | – | – | – | – | –
5 | CCNC1CC[C@@H](C)[C@](C)(/C=C/C(C)=C/Cc2c(O)c(C=O)c(C)c(Cl)c2OC)[C@H]1C (stereo partly drawn) [Compound 20, 3-chloro-5-[(2E,4E)-5-[(1R,2R,6R)-3-(ethylamino)-1,2,6-trimethylcyclohexyl]-3-methylpenta-2,4-dien-1-yl]-6-hydroxy-4-methoxy-2-methylbenzaldehyde] | 186 (≈ 83.3 µg/mL) | 0.32 (≈ 0.143 µg/mL) | – | – | 4.8 | 2.7 | 2.3 | 1.9 | 4.1 | 2.3 | – | – | – | – | –
6 | COc1c(Cl)c(C)c(/C=N/O)c(O)c1C/C=C(C)/C=C/[C@@]1(C)[C@H](C)CCC(C)(O)[C@@H]1C (stereo partly drawn) [Compound 7, (E)-3-chloro-6-hydroxy-5-((2E,4E)-5-((1R,2R,6R)-3-hydroxy-1,2,3,6-tetramethylcyclohexyl)-3-methylpenta-2,4-dien-1-yl)-4-methoxy-2-methylbenzaldehyde oxime] | – | – | 71 | 71 | 6.5 | 10 | 12.8 | 7.2 | 6.8 | 13.1 | – | – | – | – | –
7 | COc1c(Cl)c(C)c(C=O)c(O)c1C/C=C(C)/C=C/[C@@]1(C)[C@H](C)CC/C(=N\O)[C@@H]1C [Compound 2, 3-chloro-6-hydroxy-5-[(2E,4E)-5-[(1R,2R,3E,6R)-3-(hydroxyimino)-1,2,6-trimethylcyclohexyl]-3-methylpenta-2,4-dien-1-yl]-4-methoxy-2-methylbenzaldehyde] | – | – | – | – | – | – | – | – | – | – | 158 to 160 | – | – | – | –

The next lines start with results.

Row | solubility at 2 h [1, 5] [µM] | solubility at 2 h [1, 6] [µM] | Liver microsome stability remaining % after 60 min incubation with NADPH, human LM [2] [%] | Liver microsome stability remaining % after 60 min incubation with NADPH, mouse LM [3] [%] | IC50 (A549) [µM] | IC50 (HT29) [µM] | IC50 (BxPC-3) [µM] | IC50 (LNCaP) [µM] | IC50 (MDA-MB-231) [µM] | IC50 (U87-MG) [µM] | melting point [°C] | SMILES | OGTT: blood glucose level after 2 hours of glucose administration, lower than control group [4, 7] [%] | OGTT: glucose AUC lower than control group [4, 7] [%] | decrease of HbA1C level [4, 8] [%] | decrease of blood glucose level [4, 8] [%]
8 | 18 (≈ 8.6 µg/mL) | 0.01 (≈ 0.00478 µg/mL) | – | – | 2 | 3.6 | 2.2 | 0.8 | 5.3 | 3 | – | CC(/C=C/[C@@]1(C)[C@H](C)CCC(NC2CC2)[C@@H]1C)=C\Cc1c(O)c(C=O)c(C)c(Cl)c1OCF (stereo partly drawn) [Compound 13, 3-chloro-5-[(2E,4E)-5-[(1R,2R,6R)-3-(cyclopropylamino)-1,2,6-trimethylcyclohexyl]-3-methylpenta-2,4-dien-1-yl]-4-(fluoromethoxy)-6-hydroxy-2-methylbenzaldehyde] | – | – | – | –
9 | 29 (≈ 13.3 µg/mL) | 0.01 (≈ 0.0046 µg/mL) | – | – | 1.9 | 3.8 | 2.7 | 1.1 | 6 | 3.2 | – | COc1c(Cl)c(C)c(C=O)c(O)c1C/C=C(C)/C=C/[C@@]1(C)[C@H](C)CCC(NC2CC2)[C@@H]1C (stereo partly drawn) [Compound 22, 3-chloro-5-[(2E,4E)-5-[(1R,2R,6R)-3-(cyclopropylamino)-1,2,6-trimethylcyclohexyl]-3-methylpenta-2,4-dien-1-yl]-6-hydroxy-4-methoxy-2-methylbenzaldehyde] | – | – | – | –
10 | – | – | 67 | 47 | 4.3 | 6.4 | 11.4 | 4.2 | 5.1 | 9.1 | – | CC(/C=C/[C@@]1(C)[C@H](C)CC/C(=N\O)[C@@H]1C)=C\Cc1c(O)c(/C=N/O)c(C)c(Cl)c1OCF [Compound 4, 4-chloro-3-(fluoromethoxy)-2-[(2E,4E)-5-[(1R,2R,3E,6R)-3-(hydroxyimino)-1,2,6-trimethylcyclohexyl]-3-methylpenta-2,4-dien-1-yl]-6-[(1E)-(hydroxyimino)methyl]-5-methylphenol] | – | – | – | –
